According to US6126917A, “Epidermal growth factor receptor binding compounds for positron emission tomography” (Hadasit Medical Research Services and Development Ltd., priority 1999, dated 2000):
Values joined by “and” are separate entries in the source; they are usually repeats but may differ in a detail not shown here. Equal entries are not always repeated. “Also recorded” adds a separate entry of the source. Where two headings read alike, the source gives them in different places.

Key:
EGFR-TK = biological target: T1, EGFR-TK (Homo sapiens, UniProt P00533); assay: EGFR-TK autophosphorylation inhibition (ELISA assay); type: biochemical
T1 construct: As a source of EGFR-TK, A431 human epidermoid carcinoma cell lysate was used; endogenous in cells; host or cells: A431 human epidermoid carcinoma cells (Triton X-100 lysate, EGFR captured by monoclonal antibody m108)
T1 sequence (P00533 25-1210): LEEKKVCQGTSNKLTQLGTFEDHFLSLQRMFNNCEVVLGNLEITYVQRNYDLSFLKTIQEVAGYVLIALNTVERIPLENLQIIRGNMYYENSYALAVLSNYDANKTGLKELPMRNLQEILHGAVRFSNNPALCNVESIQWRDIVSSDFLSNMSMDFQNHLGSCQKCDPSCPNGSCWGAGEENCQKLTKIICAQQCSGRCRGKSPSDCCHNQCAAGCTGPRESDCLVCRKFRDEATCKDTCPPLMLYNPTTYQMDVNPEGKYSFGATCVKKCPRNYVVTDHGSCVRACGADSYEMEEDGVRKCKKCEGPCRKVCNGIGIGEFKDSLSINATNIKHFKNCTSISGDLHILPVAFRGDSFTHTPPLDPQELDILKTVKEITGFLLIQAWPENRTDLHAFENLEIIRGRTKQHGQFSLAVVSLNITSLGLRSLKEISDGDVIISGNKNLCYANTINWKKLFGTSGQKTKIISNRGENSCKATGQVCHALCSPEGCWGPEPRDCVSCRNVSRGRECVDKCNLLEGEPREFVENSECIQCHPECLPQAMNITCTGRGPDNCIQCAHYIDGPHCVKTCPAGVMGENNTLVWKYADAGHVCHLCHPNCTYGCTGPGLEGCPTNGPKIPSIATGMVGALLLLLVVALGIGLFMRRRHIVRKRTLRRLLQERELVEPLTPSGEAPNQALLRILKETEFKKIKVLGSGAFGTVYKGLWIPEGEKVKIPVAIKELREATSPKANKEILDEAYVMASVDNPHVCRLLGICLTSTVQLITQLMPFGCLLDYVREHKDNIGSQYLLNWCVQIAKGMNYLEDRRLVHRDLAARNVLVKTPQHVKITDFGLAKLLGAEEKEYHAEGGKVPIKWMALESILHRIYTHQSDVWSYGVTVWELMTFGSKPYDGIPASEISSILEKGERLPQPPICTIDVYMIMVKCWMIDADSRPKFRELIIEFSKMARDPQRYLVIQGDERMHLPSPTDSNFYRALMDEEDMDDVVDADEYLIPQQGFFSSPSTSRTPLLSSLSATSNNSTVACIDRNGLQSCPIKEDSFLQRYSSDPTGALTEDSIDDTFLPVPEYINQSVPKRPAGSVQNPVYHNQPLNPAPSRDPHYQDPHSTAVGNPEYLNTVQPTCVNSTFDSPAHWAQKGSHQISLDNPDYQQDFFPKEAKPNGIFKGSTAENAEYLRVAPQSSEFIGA
Protocol: Autophosphorylation Inhibition Experiments:
EGFR-TK source: As a source of EGFR-TK, A431 human epidermoid carcinoma cell lysate was used. A431 cells were grown in DMEM containing 10% fetal calf serum and antibiotics penicillin and streptomycin). After several days, the cells were removed from the flasks by incubation at 37° C. with PBS/i mM EDTA buffer for 1 hour. […] Cell lysate was obtained with a further centrifugation (10,000 rpm×10 minutes at 4° C.), and the supernatant was collected and frozen at -70° C. in aliquots.
ELISA assay: EGFR-TK autophosphorylation IC50 values were obtained by means an ELISA assay. All the following incubations were performed at room temperature and with constant shaking. After each step the plate was washed with water (5×) and TBST buffer (1×). The final volume for each well was 150 μl. A Coming 96 well ELISA plate was coated with monoclonal anti EGFR antibody m108 (Sugen Inc.) diluted in PBS (pH 8.2), and kept overnight at 4° C.
After removing the unbound m108, the plate was washed and PBS containing 5% milk (1% fat) was added for the blocking (25 minutes). One aliquot of A431 cell lysate was thawed and added to the plate.
After 25 minutes, seven different concentrations of each inhibitor were added, and for each case one well was left as a control. All inhibitors were diluted in TBS/DMSO and the final concentration of DMSO was 0.05% in each well (including the controls).
After 25 minutes, and without washing the plate, ATP/MnCl2 solution was added in each well. The final concentration was 3 μM ATP/5 mM MnCl2. In this step the temperature was kept at 26° C. and the plate was under constant shaking. The incubation with ATP/MnCl2 was for 5 minutes.
Then, to stop the phosphorylation reaction, EDTA was added (pH 8, final concentration in each well 20 mM) and after 1 minute all the plate was washed.
Afterward, polyclonal anti-phosphotyrosine serum (Sugen, Inc.) was added (dilution of antibody in TBST containing 5% milk). The incubation was for 45 minutes.
For the calorimetric detection of phosphotyrosine in EGFR-TK, TAGO anti-rabbit peroxidase conjugate antibody (Sugen, Inc.) was added in TBST/5% milk solution (45 minutes).
After washing, the colorimetric reaction was performed by adding ABTS/H2 O2 in citrate-phosphate buffer.
The analysis of the data was performed with "Regression" software.
Since the exact concentrations of m108 in the stock solution and EGFR-TK in the cell lysate were unknown, an experiment was performed to determine the optimal dilution of m108 stock and lysate. Stock m108 (approx. 0.2-0.5 μg/μl) was diluted 1:400, 1:600, 1:800 and 1:1000 with PBS, while A431 cell lysate was diluted 1:2, 1:4, 1:6, 1:8, and 1:10.

[1] = cited from earlier work
[2] = average ± SEM, A431 cell lysate, 3 μM ATP/5 mM MnCl2, Table 1, read-out: Autophosphorylation IC50
[3] = read-out: IC50 toward epidermal growth factor receptor tyrosine kinase activity (autophosphorylation)

In the case of `COc1cc2ncnc(Nc3ccc(F)cc3)c2cc1OC` [Compound 1, 4-[(4-Fluorophenyl)amino]-6,7-dimethoxyquinazoline], the IC50 (EGFR-TK; [2]) is reported as 76.1 ± 3.2 nM and the IC50 (EGFR-TK; [3]) is reported as 76 nM and 76.1 nM.

`COc1cc2ncnc(Nc3cc(F)cc(C(F)(F)F)c3)c2cc1OC` [Compound 3, ^4-[(3-Fluoro-5-trifluoromethylphenyl)amino]-6,7-dimethoxyquinazoline] gave an IC50 (EGFR-TK; [2]) of 116 ± 14 nM and an IC50 (EGFR-TK; [3]) of 116 nM.

With `COc1cc2ncnc(Nc3cc(Cl)c(Cl)cc3F)c2cc1OC` [Compound 4, 4-[(3,4-Dichloro-6-fluorophenyl)amino]-6,7-dimethoxyquinazoline] the “EGFR-TK autophosphorylation inhibitor potency” value (EGFR-TK) was “most potent inhibitor; also recorded: very potent EGFR-TK autophosphorylation inhibitor”, the IC50 (EGFR-TK; [2]) was 0.22 ± 0.18 nM and the IC50 (EGFR-TK; [3]) was 0.22 nM.

For `COc1cc2ncnc(Nc3cccc(Br)c3)c2cc1OC` [PD 153035], the “plasma level after approximately 3 hours, % of the maximum” value ([1]; of maximum, after approximately 3 hours) is listed as 2% and the metabolism ([1]; two identified as 6- and 7-monodemethylated derivatives) is listed as “metabolism to four compounds”.
